Reference: ChEMBL document CHEMBL4715849, “Recent Progress in the Discovery of Antifungal Agents Targeting the Cell Wall” (J Med Chem, 2020)
≈ marks a conversion by molar mass, not a printed value.

Legend:
Candida albicans [1] = assay: Antifungal activity against Candida albicans AMB-25 incubated for 48 hrs by serial two-fold dilution method; type: functional
Candida albicans [2] = assay: Antifungal activity against Candida albicans incubated for 24 hrs by turbidimetric method; type: functional
Candida albicans [3] = assay: Antifungal activity against Candida albicans ATCC 262 incubated for 24 hrs by turbidimetric method; type: functional
[4] = Inhibition of Candida albicans IFO1060 1,3-beta-D-glucan synthase
Pichia kudriavzevii = assay: Antifungal activity against Candida krusei K1153 by agar incorporation method; type: functional
Candida tropicalis [5] = assay: Antifungal activity against Candida tropicalis K1155 by agar incorporation method; type: functional
Cyberlindnera jadinii = assay: Antifungal activity against Candida utilis K482 by agar incorporation method; type: functional; details: Williopsis jadinii
Candida albicans [6] = assay: Antifungal activity against Candida albicans K1082 by agar incorporation method; type: functional
Candida tropicalis [7] = assay: Antifungal activity against Candida tropicalis K337 by agar incorporation method; type: functional
Candida parapsilosis [8] = assay: Antifungal activity against Candida parapsilosis K332 by agar incorporation method; type: functional; details: Lodderomyces parapsilosis
Candida albicans [9] = assay: Antifungal activity against Candida albicans K1133 by agar incorporation method; type: functional
[10] = system: Meyerozyma guilliermondii; assay: Antifungal activity against Candida guilliermondii K334 by agar incorporation method; type: functional
Candida albicans [11] = assay: Antifungal activity against Candida albicans K341 by agar incorporation method; type: functional
Candida parapsilosis [12] = assay: Antifungal activity against Candida parapsilosis K1154 by agar incorporation method; type: functional; details: Lodderomyces parapsilosis
Candida albicans [13] = assay: Antifungal activity against Candida albicans K335 by agar incorporation method; type: functional
Aspergillus fumigatus = assay: Antifungal activity against Aspergillus fumigatus CF1083 infected in iv dosed mouse model of pulmonary aspergillosis administered once daily for 4 days and measured on day 14; type: functional; details: 336 h, time 14 day
[14] = Inhibition of fungi 1,3-beta-D-glucan synthase
Candida albicans [15] = assay: Antifungal activity against Candida albicans infected in mouse assessed as protection against fungus-induced lethal infection; type: functional; details: read-out: PD50

For COC(=O)/C=C/C(=O)NC[C@H](N)C(=O)N[C@@H](Cc1ccccc1)C(=O)O, the MIC (Candida albicans [1]) was 0.4 µg/mL (≈ 1.1 µM).

COC(=O)/C=C/C(=O)NC[C@H](NC(=O)[C@@H](C)N)C(=O)O showed an MIC (Candida albicans [1]) of 0.4 µg/mL (≈ 1.39 µM).

For COC(=O)/C=C/C(=O)NC[C@H](NC(=O)[C@H](N)Cc1ccc(O)cc1)C(=O)O, the MIC (Candida albicans [1]) was 0.4 µg/mL (≈ 1.05 µM).

COC(=O)/C=C/C(=O)NC[C@H](NC(=O)[C@H](N)Cc1ccccc1)C(=O)O gave an MIC (Candida albicans [1]) of 0.4 µg/mL (≈ 1.1 µM).

In the case of CCCC(NC(=O)[C@@H](N)CCSC)C(=O)N[C@@H](CNC(=O)/C=C/C(=O)OC)C(N)=O (stereo not given in full), the MIC (Candida albicans [2]) is reported as 0.025 µg/mL (≈ 0.0561 µM) and the MIC (Candida albicans [3]) is reported as 0.025 µg/mL (≈ 0.0561 µM).

COC(=O)/C=C/C(=O)NC[C@H](N)C(=O)N[C@@H](Cc1ccc(O)cc1)C(=O)O showed an MIC (Candida albicans [1]) of 0.4 µg/mL (≈ 1.05 µM).

CCCCCCCCCCCCC[C@H]1OC(=O)[C@H](CCCN(CCN)CCN)NC(=O)[C@@H]([C@@H](C)O)NC(=O)CNC(=O)[C@H]([C@H](O)CC(N)=O)NC(=O)[C@H]2[C@@H](O)CCN2C(=O)[C@H]([C@@H](C)O)NC(=O)[C@@H]2C[C@@H](O)CN2C(=O)[C@H](C(C)C)NC(=O)[C@H](Cc2ccc(O)cc2)NC(=O)[C@@H](C)NC(=O)[C@H]([C@@H](C)O)NC1=O showed an IC50 [4] of 2 nM.

With CCCCCCCCCCCCC[C@H]1OC(=O)[C@H](CCCNC(=O)[C@@H](N)CCCN)NC(=O)[C@@H]([C@@H](C)O)NC(=O)CNC(=O)[C@H]([C@H](O)CC(N)=O)NC(=O)[C@H]2[C@@H](O)CCN2C(=O)[C@H]([C@@H](C)O)NC(=O)[C@@H]2C[C@@H](O)CN2C(=O)[C@H](C(C)C)NC(=O)[C@H](Cc2ccc(O)cc2)NC(=O)[C@@H](C)NC(=O)[C@H]([C@@H](C)O)NC1=O the IC50 [4] was 8 nM.

COC(=O)/C=C/C(=O)NC[C@H](NC(=O)[C@H](CCSC)NC(=O)[C@@H](N)CCSC)C(N)=O gave an MIC (Candida albicans [2]) of 0.025 µg/mL (≈ 0.0523 µM) and an MIC (Candida albicans [3]) of 0.025 µg/mL (≈ 0.0523 µM).

CC[C@H](C)CC/C=C/C=C(\C)[C@@H](O)C/C=C/C=C/C(=O)O[C@H]1[C@H](O)[C@@H](CO)O[C@]2(OCc3cc(O)cc(O)c32)[C@@H]1O showed an MIC (Pichia kudriavzevii) of 0.1 µg/mL (≈ 0.174 µM), an MIC (Candida tropicalis [5]) of 0.1 µg/mL (≈ 0.174 µM) and an MIC (Cyberlindnera jadinii) of 0.1 µg/mL (≈ 0.174 µM). The MIC (Candida albicans [6]) was 0.1 µg/mL (≈ 0.174 µM), the MIC (Candida tropicalis [7]) was 0.1 µg/mL (≈ 0.174 µM) and the MIC (Candida parapsilosis [8]) was 0.1 µg/mL (≈ 0.174 µM). It also gave an MIC (Candida albicans [9]) of 0.1 µg/mL (≈ 0.174 µM), an MIC [10] of 0.1 µg/mL (≈ 0.174 µM) and an MIC (Candida albicans [11]) of 0.1 µg/mL (≈ 0.174 µM). For the same compound, the MIC (Candida parapsilosis [12]) was 0.1 µg/mL (≈ 0.174 µM) and the MIC (Candida albicans [13]) was 0.1 µg/mL (≈ 0.174 µM).

COC(=O)/C=C/C(=O)NC[C@H](NC(=O)[C@H](N)CC(C)C)C(=O)O showed an MIC (Candida albicans [1]) of 0.4 µg/mL (≈ 1.21 µM).

Work on CCCCC(N)C(=O)N[C@@H](CNC(=O)/C=C/C(=O)OC)C(=O)O (stereo not given in full) yielded an MIC (Candida albicans [1]) of 0.4 µg/mL (≈ 1.21 µM).

For COC(=O)/C=C/C(=O)NC[C@H](NC(=O)CN)C(=O)O, the MIC (Candida albicans [1]) was 0.4 µg/mL (≈ 1.46 µM).

Compound CCCCCCCCCCCCC[C@H]1OC(=O)[C@H](CCCN(CCCN)C(=O)[C@H](CCCN)N(CCN)CCN)NC(=O)[C@@H]([C@@H](C)O)NC(=O)CNC(=O)[C@H]([C@H](O)CC(N)=O)NC(=O)[C@H]2[C@@H](O)CCN2C(=O)[C@H]([C@@H](C)O)NC(=O)[C@@H]2C[C@@H](O)CN2C(=O)[C@H](C(C)C)NC(=O)[C@H](Cc2ccc(O)cc2)NC(=O)[C@@H](C)NC(=O)[C@H]([C@@H](C)O)NC1=O has an ED50 (Aspergillus fumigatus) of 5.2 mg/kg and an IC50 [14] of 0.25 nM.

Compound CCC(N)C(=O)N[C@@H](CNC(=O)/C=C/C(=O)OC)C(=O)O (stereo not given in full) has an MIC (Candida albicans [1]) of 0.4 µg/mL (≈ 1.33 µM).

COc1cc(O)c2c(c1)C(=O)c1c(cc3c(c1O)-c1c(cc(C)c(C(=O)NC(C)C(=O)O)c1O)[C@H](O[C@@H]1O[C@H](C)[C@H](O)[C@H](O[C@@H]4OC[C@@H](O)[C@H](O)[C@H]4O)[C@H]1O)[C@H]3O)C2=O (stereo not given in full) showed an ED50 (Candida albicans [15]) of 71 mg/kg.

Work on COC(=O)/C=C/C(=O)NC[C@H](N)C(=O)N[C@@H](CCSC)C(=O)O yielded an MIC (Candida albicans [1]) of 0.4 µg/mL (≈ 1.15 µM).

COC(=O)/C=C/C(=O)NC[C@H](NC(=O)[C@H](C)N)C(=O)N[C@@H](C)C(=O)O showed an MIC (Candida albicans [2]) of 0.025 µg/mL (≈ 0.0698 µM) and an MIC (Candida albicans [3]) of 0.025 µg/mL (≈ 0.0698 µM).

With CCC(O)/C=C/C=C/C=C/C(=O)OC[C@H]1O[C@@H](O[C@H]2[C@H](OC(=O)/C=C/C=C/C[C@H](O)/C(C)=C/C=C/CC[C@@H](C)CC)[C@@H](O)[C@@]3(OCc4cc(O)cc(O)c43)O[C@@H]2CO)[C@H](O)[C@@H](O)[C@H]1O (stereo not given in full) the MIC (Pichia kudriavzevii) was 0.1 µg/mL (≈ 0.111 µM), the MIC (Candida tropicalis [5]) was 0.1 µg/mL (≈ 0.111 µM) and the MIC (Cyberlindnera jadinii) was 0.1 µg/mL (≈ 0.111 µM). For the same compound, the MIC (Candida albicans [6]) was 0.1 µg/mL (≈ 0.111 µM), the MIC (Candida tropicalis [7]) was 0.1 µg/mL (≈ 0.111 µM) and the MIC (Candida parapsilosis [8]) was 0.1 µg/mL (≈ 0.111 µM). The MIC (Candida albicans [9]) was 0.1 µg/mL (≈ 0.111 µM), the MIC [10] was 0.1 µg/mL (≈ 0.111 µM) and the MIC (Candida albicans [11]) was 0.1 µg/mL (≈ 0.111 µM). The MIC (Candida parapsilosis [12]) was 0.1 µg/mL (≈ 0.111 µM) and the MIC (Candida albicans [13]) was 0.1 µg/mL (≈ 0.111 µM).

Compound CCCCCCCCCCCCC[C@H]1OC(=O)[C@H](CCCNC(=O)[C@@H](CCCN)N(CCN)CCN)NC(=O)[C@@H]([C@@H](C)O)NC(=O)CNC(=O)[C@H]([C@H](O)CC(N)=O)NC(=O)[C@H]2[C@@H](O)CCN2C(=O)[C@H]([C@@H](C)O)NC(=O)[C@@H]2C[C@@H](O)CN2C(=O)[C@H](C(C)C)NC(=O)[C@H](Cc2ccc(O)cc2)NC(=O)[C@@H](C)NC(=O)[C@H]([C@@H](C)O)NC1=O has an ED50 (Aspergillus fumigatus) of 5.2 mg/kg and an IC50 [14] of 0.9 nM.
